In ChEMBL document CHEMBL1201862, “PubChem BioAssay data set” (2004):
Active and inactive are the calls of the source.

Key:
[1] = HEK293 cell cytotoxicity, dose response, cytotoxicity control, plate reader, cherry-picked samples (AID 743446); format: functional, cell-based
[2] = MC4R antagonists, dose response, counter-screen for LGR2 antagonist project, cell-based, plate reader, cherry pick (AID 743444); format: functional;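 further: transfected HEK 293 cells stimulated with alpha-MSH peptide; potency of inhibitors of the alpha-MSH evoked signal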
[3] = LGR2 antagonists, dose response, cell-based, HEK293, CRE-luciferase reporter, cherry pick, set 2 (AID 743343); format: functional;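 further: transfected cells were stimulated with diluted bursicon conditioned medium after compound addition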
[4] = HepG2 cell cytotoxicity, dose response, cytotoxicity control, plate reader, cherry-pick, antagonist series (AID 743416); format: functional, cell-based
[5] = molecular target: T1, DNA repair protein RAD52 homolog (Homo sapiens, UniProt P43351); format: functional, biochemical
T1 sequence (P43351 whole entry): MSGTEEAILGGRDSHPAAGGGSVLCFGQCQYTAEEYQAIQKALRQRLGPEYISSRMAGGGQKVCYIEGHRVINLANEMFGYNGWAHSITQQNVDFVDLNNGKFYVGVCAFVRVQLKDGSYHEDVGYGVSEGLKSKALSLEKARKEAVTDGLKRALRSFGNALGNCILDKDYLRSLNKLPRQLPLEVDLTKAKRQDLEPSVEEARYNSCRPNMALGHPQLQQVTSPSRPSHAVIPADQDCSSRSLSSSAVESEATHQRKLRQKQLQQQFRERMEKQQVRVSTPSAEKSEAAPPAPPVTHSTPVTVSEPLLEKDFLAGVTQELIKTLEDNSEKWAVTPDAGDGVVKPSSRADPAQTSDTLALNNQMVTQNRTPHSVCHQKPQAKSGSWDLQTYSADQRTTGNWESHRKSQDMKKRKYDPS

[6] = MDA-MB-231 cell growth inhibition, dose response, cytotoxicity control for RAD54 inhibitor project, CellTiter-Glo luminescence, cherry-pick (AID 651692); format: functional, cell-based
[7] = A549 cell cytotoxicity, dose response, cytotoxicity control, plate reader, cherry-pick, antagonist series (AID 743412); format: functional, cell-based
[8] = molecular target: T2, Ubiquitin-conjugating enzyme E2 N (Homo sapiens, UniProt P61088); format: functional;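 further: Dose-response confirmation in a TR-FRET assay detecting UBC13-driven polyubiquitin chain formation, inhibition measured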
T2 sequence (P61088 whole entry): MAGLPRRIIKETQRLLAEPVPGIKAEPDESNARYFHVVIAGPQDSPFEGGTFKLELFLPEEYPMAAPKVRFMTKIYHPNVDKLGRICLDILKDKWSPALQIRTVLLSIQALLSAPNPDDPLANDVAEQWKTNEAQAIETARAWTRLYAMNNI

[9] = molecular target: DNA repair and recombination protein RAD54-like (Homo sapiens, UniProt Q92698); assay: inhibitors of human RAD54 branch migration, confirmation, biochemical, fluorescence, cherry-picked samples, dose series (AID 651657); format: functional
[10] = molecular target: T3, High affinity choline transporter 1 (Homo sapiens, UniProt Q9GZV3); assay: inhibitors of CHT choline uptake, dose response, cell-based, 3H-choline uptake, CHT LV-AA trafficking mutant, CRC (AID 602208); format: functional
T3 sequence (Q9GZV3 whole entry): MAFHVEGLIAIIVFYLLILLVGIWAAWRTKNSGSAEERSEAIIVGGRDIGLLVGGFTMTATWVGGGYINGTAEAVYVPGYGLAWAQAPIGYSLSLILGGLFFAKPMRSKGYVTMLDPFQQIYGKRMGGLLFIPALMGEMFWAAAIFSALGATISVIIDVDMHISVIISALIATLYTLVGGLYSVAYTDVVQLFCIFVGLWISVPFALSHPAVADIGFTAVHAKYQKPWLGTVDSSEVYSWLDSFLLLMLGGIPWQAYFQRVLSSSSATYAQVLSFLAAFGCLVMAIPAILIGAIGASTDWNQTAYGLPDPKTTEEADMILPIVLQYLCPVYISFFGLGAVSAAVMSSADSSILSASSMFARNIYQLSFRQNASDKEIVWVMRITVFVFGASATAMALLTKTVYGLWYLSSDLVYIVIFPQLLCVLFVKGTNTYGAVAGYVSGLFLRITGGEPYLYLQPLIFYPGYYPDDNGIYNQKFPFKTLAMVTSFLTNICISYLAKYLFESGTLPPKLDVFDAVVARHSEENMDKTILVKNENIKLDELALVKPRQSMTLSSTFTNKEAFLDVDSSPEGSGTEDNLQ

[11] = molecular target: T3, High affinity choline transporter 1; assay: CHT inhibitors, dose response, cell-based, 5-point CRC, membrane potential dye (AID 504840); format: functional
[12] = molecular target: T3, High affinity choline transporter 1; assay: CHT inhibitors, dose response, cell-based, 10-point CRC, membrane potential dye (AID 588401); format: functional;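 further: membrane potential dye fluorescence of choline-evoked depolarization via CHT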
[13] = molecular target: Nuclear receptor subfamily 5 group A member 2 (Homo sapiens, UniProt O00482); format: functional, cell-based;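 further: HEK293T cells transfected with LRH-1 and a StAR promoter luciferase reporter; potency for inhibitors that lower LRH-1 driven reporter light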
[14] = StAR promoter reporter inhibition counter-screen, dose response, counter-screen for LRH-1 inverse agonist project, cell-based, luminescence, luciferase reporter (AID 651969); format: functional
Steroidogenic factor 1 = Steroidogenic factor 1 (Homo sapiens, UniProt Q13285); assay: Counterscreen for inverse agonists of the liver receptor homolog-1 (LRH-1; NR5A2): Luminescence-based cell-based high throughput dose response assay to identify inverse agonists of the Steroidogenic Factor 1 Nuclear Receptor (SF1; NR5A1).; format: functional
[15] = AlphaScreen signal interference compounds, dose response, artefact control for ARNT-TACC3 interaction inhibitor project, biochemical, luminescence, cherry-pick (AID 651705); format: functional;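 further: AlphaScreen bead proximity signal that flags compounds interfering with the detection technology; potency reflects signal decrease which marks the compound as an assay artifact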
[16] = Shn3 3'UTR reporter inhibitors, dose response, cell-based, Clone20 osteoblasts, firefly luciferase, cherry-picked (AID 624132); format: functional;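 further: firefly luciferase luminescence from reporter carrying the Shn3 3'UTR in osteoblasts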
HEK293 [17] = assay: cells; format: functional, cell-based; settings: Homo sapiens
HEK293 [18] = assay: NOD1 signaling inhibitors, primary screen, cell-based, luminescence, uHTS (AID 1578); format: functional; settings: Homo sapiens
[19] = HepG2 cell cytotoxicity, dose response, cytotoxicity control for Shn3 inhibitor project, CellTiter-Glo, cherry-picked (AID 624134); format: functional, cell-based
HEK293 [20] = assay: cells; format: functional, cell-based; settings: Homo sapiens; remark: listed apart in the source
[21] = molecular target: Nucleotide-binding oligomerization domain-containing protein 2 (Homo sapiens, UniProt Q9HC29); assay: NOD2 signaling inhibitors, cell-based, luminescence, uHTS, HEK293 (AID 1566); format: functional
Protein Wnt-3a = Protein Wnt-3a (Mus musculus, UniProt P27467); assay: Wnt3a-driven reporter signaling inhibition, dose response, selectivity assay for Gli-SUFU antagonist project, Wnt-LIGHT cells, luminescence (AID 651570); format: functional; settings: read-out: IC50_Mean;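 further: Wnt-LIGHT reporter cells stimulated with conditioned medium from Wnt3a-producing cells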
[22] = control 3'UTR Renilla luciferase suppression, dose response, counter-screen for Shn3 inhibitor project, cell-based, Clone20-Shn3RL, cherry-picked (AID 624133); format: functional
HEK293 [23] = assay: cells; format: functional, cell-based; settings: Homo sapiens; remark: listed apart in the source
[24] = molecular target: Long-chain-fatty-acid--AMP ligase FadD28 (Mycobacterium tuberculosis, UniProt P9WQ59); assay: Fluorescence polarization aasay to screen for inhibitors that compete for the binding of FadD28 to a bisubstrate Measured in Biochemical System Using Plate Reader - 2147-01_Inhibitor_Dose_CherryPick_Activity.; format: functional, Mycobacterium tuberculosis H37Rv
INS1 = assay: beta cell apoptosis inhibitors, cytokine rescue, dose response, luminescence, retest (AID 449756); format: functional, cell-based; settings: Rattus norvegicus;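 further: cell death triggered by IL-1 beta plus TNF-alpha plus IFN-gamma mixture; protective hits raise ATP signal compared with cytokine alone wells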
[25] = cytotoxicity in HEK-293T cells, dose response, cytotoxicity control for TCR NF-kB inhibitor project, luminescence, T-cell screen hits (AID 489026); format: functional, cell-based;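 further: cells exposed to compound about 14 hours before the viability readout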
[26] = NIH-3T3 fibroblast cytotoxicity, dose response, cytotoxicity control, cell-based, fluorescence, Alamar Blue, secondary assay (AID 2327); format: functional;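 further: NIH-3T3 mouse fibroblasts cultured with fluconazole at 8 µg/mL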
[27] = molecular target: Benomyl/methotrexate resistance protein (Candida albicans, UniProt P28873); assay: CaMdr1 efflux pump inhibitor potency, dose response, singleplex, Cherry Pick1 hits (AID 588608); format: functional
[28] = growth suppression of beta-catenin-knockout colon cells, dose response, cell-based, HCT116, human colon tumor (AID 1045); format: functional;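 further: HCT116 colon tumor cells with beta catenin knocked out; cells exposed to compound for 60 hours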
[29] = growth suppression of PTEN-null colon cells, dose response, cell-based, HCT116 PTEN knockout (AID 1047); format: functional;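 further: HCT116 colon tumor cells with PTEN knocked out; cells exposed to compound for 60 hours before readout; potency for loss of cell viability measured by luminescence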
[30] = molecular target: Fructose-bisphosphate aldolase (Mycobacterium tuberculosis, UniProt P9WQA3); assay: Fluorescence-based biochemical high throughput dose response assay for inhibitors of the fructose-bisphosphate aldolase (FBA) of M. tuberculosis.; format: functional
Melanocortin receptor 4 = Melanocortin receptor 4 (Homo sapiens, UniProt P32245); format: functional, cell-based;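 further: Cell-based assay with luminescence read-out, confirmatory dose-response testing for agonist activity of biased ligands at MC4R; human U2OS cells with tagged receptor and beta-arrestin; potency of agonists that increase receptor coupling to beta-arrestin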
cells [31] = format: functional, cell-based
cells [32] = format: functional, cell-based; remark: listed apart in the source
CHO = assay: cytotoxicity in TLR9-MyD88 CHO cells, dose response, cytotoxicity control for TLR9-MyD88 binding inhibitor project, cell-based, luminescence (AID 588339); format: functional, hamster; settings: Cricetulus griseus;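 further: CHO cells stably coexpressing TLR9 and MyD88 fusions from primary screen; compound exposure lasted 48 hours before viability readout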
[33] = molecular target: T4, Sentrin-specific protease 8 (Homo sapiens, UniProt Q96LD8); format: functional
T4 sequence (Q96LD8 whole entry): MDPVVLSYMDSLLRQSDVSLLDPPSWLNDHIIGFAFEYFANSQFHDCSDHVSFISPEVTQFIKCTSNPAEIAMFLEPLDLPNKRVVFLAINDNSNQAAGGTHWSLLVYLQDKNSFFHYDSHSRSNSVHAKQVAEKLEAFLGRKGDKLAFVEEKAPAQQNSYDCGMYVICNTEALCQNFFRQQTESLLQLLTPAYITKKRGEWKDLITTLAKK

Beta Lactamase = Beta Lactamase (Pseudomonas aeruginosa, UniProt Q932Y6); assay: beta-lactamase reporter inhibitor potency, dose response, artefact control for TLR9-MyD88 binding inhibitor project, BLA reporter cells, FRET fluorescence (AID 588341); format: cell-based;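 further: cell based assay in CHO-K1 cells stably expressing beta-lactamase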
[34] = molecular target: T4, Sentrin-specific protease 8; format: functional; remark: listed apart in the source

Fructose-bisphosphate aldolase, sequence (P9WQA3 whole entry): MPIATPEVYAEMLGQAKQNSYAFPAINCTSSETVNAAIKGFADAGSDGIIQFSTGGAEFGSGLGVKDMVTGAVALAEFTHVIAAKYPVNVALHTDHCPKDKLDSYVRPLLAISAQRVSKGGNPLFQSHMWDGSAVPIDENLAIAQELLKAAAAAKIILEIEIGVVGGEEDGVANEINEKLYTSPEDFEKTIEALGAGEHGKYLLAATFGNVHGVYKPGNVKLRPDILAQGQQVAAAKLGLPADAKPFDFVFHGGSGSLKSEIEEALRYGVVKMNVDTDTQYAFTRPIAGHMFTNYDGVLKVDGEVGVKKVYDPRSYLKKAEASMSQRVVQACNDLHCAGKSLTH
Melanocortin receptor 4, sequence (P32245 whole entry): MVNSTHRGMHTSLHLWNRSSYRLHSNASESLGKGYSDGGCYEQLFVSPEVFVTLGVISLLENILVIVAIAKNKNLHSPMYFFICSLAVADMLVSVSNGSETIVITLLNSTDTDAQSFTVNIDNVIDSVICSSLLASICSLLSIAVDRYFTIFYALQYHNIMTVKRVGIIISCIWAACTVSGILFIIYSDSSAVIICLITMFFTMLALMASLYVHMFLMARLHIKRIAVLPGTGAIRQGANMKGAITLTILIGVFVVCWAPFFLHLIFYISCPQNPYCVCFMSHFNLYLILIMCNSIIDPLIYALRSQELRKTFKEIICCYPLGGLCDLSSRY
Long-chain-fatty-acid--AMP ligase FadD28, sequence (P9WQ59 whole entry): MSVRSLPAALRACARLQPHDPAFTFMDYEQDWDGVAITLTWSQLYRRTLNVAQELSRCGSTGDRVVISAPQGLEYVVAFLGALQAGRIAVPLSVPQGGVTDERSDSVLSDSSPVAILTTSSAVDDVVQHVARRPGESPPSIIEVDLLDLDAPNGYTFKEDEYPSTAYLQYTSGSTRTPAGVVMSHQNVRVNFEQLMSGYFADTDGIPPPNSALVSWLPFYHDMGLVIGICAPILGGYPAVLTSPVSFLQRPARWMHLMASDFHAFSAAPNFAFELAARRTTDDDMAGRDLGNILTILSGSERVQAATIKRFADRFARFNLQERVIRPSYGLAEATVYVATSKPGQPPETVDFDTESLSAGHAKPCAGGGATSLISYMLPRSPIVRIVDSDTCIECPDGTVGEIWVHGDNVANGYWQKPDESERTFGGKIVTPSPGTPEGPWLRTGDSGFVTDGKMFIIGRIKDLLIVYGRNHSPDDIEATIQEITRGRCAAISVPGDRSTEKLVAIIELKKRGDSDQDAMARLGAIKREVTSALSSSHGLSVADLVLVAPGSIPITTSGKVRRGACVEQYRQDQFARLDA
Steroidogenic factor 1, sequence (Q13285 whole entry): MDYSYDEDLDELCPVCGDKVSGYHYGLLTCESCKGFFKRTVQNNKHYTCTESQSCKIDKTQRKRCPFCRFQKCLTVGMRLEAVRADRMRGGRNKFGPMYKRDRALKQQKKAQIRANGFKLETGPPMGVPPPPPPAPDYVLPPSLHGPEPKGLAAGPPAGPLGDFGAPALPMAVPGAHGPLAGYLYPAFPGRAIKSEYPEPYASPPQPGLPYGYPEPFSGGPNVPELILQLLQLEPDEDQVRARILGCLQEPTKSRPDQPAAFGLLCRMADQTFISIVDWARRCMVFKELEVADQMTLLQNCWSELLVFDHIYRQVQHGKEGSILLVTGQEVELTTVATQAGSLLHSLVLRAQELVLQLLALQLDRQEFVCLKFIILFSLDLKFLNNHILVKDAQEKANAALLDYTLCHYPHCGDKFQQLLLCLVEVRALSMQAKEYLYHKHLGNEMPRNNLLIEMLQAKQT
Protein Wnt-3a, sequence (P27467 whole entry): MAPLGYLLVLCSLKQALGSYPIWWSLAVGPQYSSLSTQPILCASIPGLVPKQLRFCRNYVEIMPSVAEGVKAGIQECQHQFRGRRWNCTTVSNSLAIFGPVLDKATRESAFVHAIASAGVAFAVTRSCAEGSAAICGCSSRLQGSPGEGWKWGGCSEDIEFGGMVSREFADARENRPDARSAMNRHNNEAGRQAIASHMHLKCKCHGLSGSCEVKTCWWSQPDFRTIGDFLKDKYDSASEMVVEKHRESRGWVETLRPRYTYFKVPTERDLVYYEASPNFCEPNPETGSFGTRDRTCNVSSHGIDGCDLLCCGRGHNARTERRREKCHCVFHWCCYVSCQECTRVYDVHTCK
Nuclear receptor subfamily 5 group A member 2, sequence (O00482 whole entry): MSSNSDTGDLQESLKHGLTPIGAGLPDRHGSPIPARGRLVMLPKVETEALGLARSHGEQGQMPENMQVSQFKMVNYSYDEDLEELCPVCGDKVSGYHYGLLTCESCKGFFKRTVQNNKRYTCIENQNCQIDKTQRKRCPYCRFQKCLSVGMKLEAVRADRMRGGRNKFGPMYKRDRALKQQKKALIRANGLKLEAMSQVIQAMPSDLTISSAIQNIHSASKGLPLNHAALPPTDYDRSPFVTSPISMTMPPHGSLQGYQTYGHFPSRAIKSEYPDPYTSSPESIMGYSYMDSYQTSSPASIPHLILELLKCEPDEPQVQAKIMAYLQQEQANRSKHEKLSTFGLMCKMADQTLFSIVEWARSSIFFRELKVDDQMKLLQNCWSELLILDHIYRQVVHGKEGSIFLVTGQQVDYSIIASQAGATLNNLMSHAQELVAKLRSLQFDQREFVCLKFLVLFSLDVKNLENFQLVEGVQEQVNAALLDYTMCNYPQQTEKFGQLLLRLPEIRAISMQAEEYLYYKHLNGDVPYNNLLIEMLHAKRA
Benomyl/methotrexate resistance protein, sequence (P28873 whole entry): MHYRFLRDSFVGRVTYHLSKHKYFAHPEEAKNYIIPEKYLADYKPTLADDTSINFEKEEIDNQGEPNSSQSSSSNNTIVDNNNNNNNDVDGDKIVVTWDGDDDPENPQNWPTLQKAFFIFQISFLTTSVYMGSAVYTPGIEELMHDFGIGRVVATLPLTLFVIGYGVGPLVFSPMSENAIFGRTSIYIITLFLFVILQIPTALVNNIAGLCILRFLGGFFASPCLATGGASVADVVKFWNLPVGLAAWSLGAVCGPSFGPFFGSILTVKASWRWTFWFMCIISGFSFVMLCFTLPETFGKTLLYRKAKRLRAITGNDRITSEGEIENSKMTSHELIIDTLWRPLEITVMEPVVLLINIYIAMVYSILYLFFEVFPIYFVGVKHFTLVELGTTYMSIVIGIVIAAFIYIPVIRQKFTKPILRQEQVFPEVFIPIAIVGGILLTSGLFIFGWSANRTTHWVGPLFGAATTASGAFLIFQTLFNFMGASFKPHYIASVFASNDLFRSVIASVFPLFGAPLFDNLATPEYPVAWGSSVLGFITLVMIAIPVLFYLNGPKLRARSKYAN
Nucleotide-binding oligomerization domain-containing protein 2, sequence (Q9HC29 whole entry, the tested form may be a part): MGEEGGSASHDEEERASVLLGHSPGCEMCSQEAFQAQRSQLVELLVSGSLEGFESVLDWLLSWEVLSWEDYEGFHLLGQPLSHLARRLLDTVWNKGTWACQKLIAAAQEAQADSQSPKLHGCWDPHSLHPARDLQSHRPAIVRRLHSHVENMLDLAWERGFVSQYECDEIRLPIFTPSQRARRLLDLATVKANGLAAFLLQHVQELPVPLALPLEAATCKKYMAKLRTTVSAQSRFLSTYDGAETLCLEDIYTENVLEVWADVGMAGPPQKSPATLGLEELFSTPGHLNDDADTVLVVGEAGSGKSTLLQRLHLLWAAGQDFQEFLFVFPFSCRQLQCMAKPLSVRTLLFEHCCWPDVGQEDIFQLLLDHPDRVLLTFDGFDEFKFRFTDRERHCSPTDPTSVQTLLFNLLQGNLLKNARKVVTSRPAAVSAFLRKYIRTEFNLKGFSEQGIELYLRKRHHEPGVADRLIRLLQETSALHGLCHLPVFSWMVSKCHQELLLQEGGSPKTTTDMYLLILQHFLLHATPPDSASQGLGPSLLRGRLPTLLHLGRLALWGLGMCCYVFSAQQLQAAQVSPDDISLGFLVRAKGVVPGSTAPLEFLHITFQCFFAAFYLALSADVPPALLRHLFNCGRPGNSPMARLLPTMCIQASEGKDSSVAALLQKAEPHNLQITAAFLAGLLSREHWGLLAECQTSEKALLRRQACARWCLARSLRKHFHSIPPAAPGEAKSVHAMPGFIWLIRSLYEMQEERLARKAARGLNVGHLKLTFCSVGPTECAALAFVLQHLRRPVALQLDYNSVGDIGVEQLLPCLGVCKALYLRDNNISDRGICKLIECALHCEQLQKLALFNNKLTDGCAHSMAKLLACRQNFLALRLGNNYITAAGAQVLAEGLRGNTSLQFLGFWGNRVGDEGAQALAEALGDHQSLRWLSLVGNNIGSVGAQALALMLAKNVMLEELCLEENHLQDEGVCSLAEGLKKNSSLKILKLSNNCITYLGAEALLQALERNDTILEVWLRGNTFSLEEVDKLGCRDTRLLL
Beta Lactamase, sequence (Q932Y6 whole entry): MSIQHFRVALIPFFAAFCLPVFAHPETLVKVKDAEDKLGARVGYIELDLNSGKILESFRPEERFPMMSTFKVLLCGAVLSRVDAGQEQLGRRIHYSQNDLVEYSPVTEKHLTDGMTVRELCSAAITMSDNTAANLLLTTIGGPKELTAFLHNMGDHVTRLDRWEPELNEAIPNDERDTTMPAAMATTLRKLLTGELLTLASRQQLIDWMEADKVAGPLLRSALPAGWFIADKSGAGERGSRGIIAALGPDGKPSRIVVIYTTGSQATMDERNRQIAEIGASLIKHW

## COc1ccc(NC(=O)c2ccc(-c3ccc(-c4noc(C)n4)cc3C)cc2)cc1N1CCN(C)CC1
[1]
  AC50: 14.5 µM (active)
[2]
  AC50: 27.6 µM (active)
[3]
  AC50: 22.7 µM (active)
[4]
  AC50: 8.08 µM (active)
[5]
  AC50: 7.71 µM (active)
[6]
  AC50: 14.4 µM (active)
[7]
  AC50: 8.17 µM (active)
[8]
  IC50: > 20 µM (inactive)
[9]
  AC50: 79 µM (active)

## O=C(Nc1ccc(S(=O)(=O)Nc2ccccn2)cc1)c1ccc(Cl)cc1Cl
[10]
  IC50: 12.8 µM (active)
[11]
  IC50: 4.17 µM (active)
[12]
  IC50: 3.81 µM (active)

## CCc1cc(CNC(=O)c2ccc(OC)c(OC3CCN(C(C)C)CC3)c2)on1
[10]
  IC50: 0.0189 µM (active)
[11]
  IC50: 0.316 µM (active)
[12]
  IC50: 0.597 µM (active)

## O=C(Nc1ccc(S(=O)(=O)N2CCOCC2)cc1)c1cccc([N+](=O)[O-])c1
[13]
  IC50: 12 µM (inactive)
[14]
  IC50: 35.9 µM (inactive)
Steroidogenic factor 1
  IC50: 2.2 µM (active)

## CCN(CC)C(=O)c1sc2nc(-c3ccccn3)nc(O)c2c1C
[15]
  AC50: 77.1 µM (active)

## CC(=O)c1cn(Cc2ccccc2F)c2ccccc12
[16]
  AC50: 2.96 µM (active)
HEK293 [17]
  IC50: 5 µM (active)
HEK293 [18]
  EC50: 2.96 µM (active)
[19]
  AC50: 3.35 µM (active)
HEK293 [20]
  IC50: > 20 µM (inactive)
[21]
  EC50: 4.05 µM (active)
Protein Wnt-3a
  IC50: 0.491 µM (active)
[22]
  AC50: 9.56 µM (active)
HEK293 [23]
  IC50: > 20 µM (inactive)

## COc1cccc(NC(=O)Cn2nnc(-c3ccccc3N)n2)c1
[24]
  AC50: 66.6 µM (active)

## C#CC[N+](C)(C)CCCCCCCCCCCC
INS1
  AC50: 4.61 µM (active)
[25]
  IC50: > 80 µM (inactive)
[26]
  EC50: > 160 µM (inconclusive)
[27]
  EC50: 0.312 µM (active)
Protein Wnt-3a
  IC50: 0.279 µM (active)
[28]
  EC50: 3.33 µM (active)
[29]
  EC50: 2.9 µM (active)

## COc1ccc(CCNC(=O)COC(=O)C23CC4CC(CC(Br)(C4)C2)C3)cc1
[13]
  IC50: 16.6 µM (inactive)
[14]
  IC50: 35.9 µM (inactive)
Steroidogenic factor 1
  IC50: 4.45 µM (active)

## O=C(COC(=O)c1cccs1)Nc1nnc(-c2ccccc2)o1
[15]
  AC50: 102 µM (active)

## Cc1nn(C)cc1-c1cc(C(=O)O)c2ccccc2n1
[30]
  IC50: 1.91 µM (active)

## COc1cccc(-c2cnc3c(NC(C)=O)cc(-c4ccsc4)cn23)c1
Melanocortin receptor 4
  EC50: 26.2 µM (inactive)

## O=C1CCC(=O)c2ccc3c4c(ccc1c24)CC3
[30]
  IC50: 1.56 µM (active)

## COc1ccc(/C=N/NC(=O)c2ccc(COc3ccccc3Cl)o2)c(OC)c1C
Melanocortin receptor 4
  EC50: > 89.2 µM (inactive)

## COC(=O)[C@]12C[C@H](CC(=O)NCCc3ccccc3OC)C(=O)N(Cc3ccc4c(c3)OCO4)C1=C[C@H](COCc1ccccc1)O[C@@H]2C
Cells [31]
  IC50: > 29.9 µM (inactive)
Cells [32]
  EC50: > 29.9 µM (inactive)

## Cc1ccc(SCc2c(C(=O)N/N=C/c3ccoc3)nnn2-c2nonc2N)cc1
[24]
  AC50: > 100 µM (inactive)

## O=C1Cc2ccccc2C(=O)N1c1ccccc1
CHO
  IC50: > 49.7 µM (inactive)
[33]
  IC50: 12.9 µM (active)
Beta Lactamase
  IC50: 3.97 µM (active)
[34]
  IC50: > 100 µM (inactive)
